Earlier results as cited in US20180318238A1, “METHODS FOR REDUCING SEQUELAE OF INTRA-DIALYTIC HYPOTENSION” (priority 2015, published 2018).

Conditions: intravenous, dogs, all doses used; from WO 98/13036

In the case of S-ethylisothiouronium diethylphosphate, the “Effect on arterial blood pressure” value is given as “pronounced hypertensive effect at all doses used”.
